Where “and” joins values, the source holds several entries; their conditions need not be identical. Equal entries are not always repeated. Calls of active or inactive are those of the source.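 How the source made its calls: active means compounds giving half or more protection of infected cells from virus-caused growth loss, again on retest; inactive means the rest.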 Where a SMILES comes first, the peptide text is derived from it.
System: CEM cells HIV-1 protection, formazan growth assay
Assay: NCI AIDS Antiviral Assay
Conditions: for IC50: measured here: growth of uninfected CEM cells
Outline: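 CEM (human) cells, HIV-1 infected vs uninfected, 5-point dosing, formazan growth read-out. Retest threshold 50% protection.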

Compound | EC50 | IC50 | outcome
CC(=O)N/N=C(\C=C\c1ccccc1)c1ccccc1OC(C)=O | > 200 µM | 107 µM | 
COc1ccc2nc3cc([N+](=O)[O-])ccc3c(NCCCCCN(C)C)c2c1 | > 2 µM | 0.138 µM | 
CCOC(=O)NC(OC)(C(F)(F)F)C(F)(F)F | > 200 µM | > 200 µM | 
c1ccc2c(c1)Cc1cn3ncnc3nc1-2 | > 200 µM | > 200 µM | 
COC(=O)c1ccccc1/C=C1\Cc2cc3c(cc2C1=O)CCC3 | > 200 µM | 45.7 µM | 
NS(=O)(=O)c1ccc(NC(=O)Nc2cc(C(F)(F)F)ccc2Cl)cc1 | > 200 µM | 10.2 µM | 
O=C(NC(Nc1ccc(F)c(Cl)c1)(C(F)(F)F)C(F)(F)F)C(C(F)(F)F)C(F)(F)F | > 200 µM |  | 
O=C1C=Cc2ncccc2C1=O | > 1580 µM | 5.5 µM | 
CCCCCCCCSC1OC(CO)C(O)C(O)C1O (centres undefined) |  |  | inactive
CCOC(=O)Nc1nc2ccn(C)c2s1 | > 200 µM | > 200 µM | 
COc1cc(N=O)c(N=O)cc1[N+](=O)[O-] | > 170 µM | 15.1 µM | 
CN(C)CCC(=O)N1C/C(=C/c2ccccc2)C(=O)/C(=C\c2ccccc2)C1 | > 17.4 µM | 0.339 µM | 
CCc1cc(-c2cccc3ccccc23)c(C#N)c(=S)n1C1OC(CO)C(O)C(O)C1O (centres undefined) | > 200 µM | 61.7 µM | 
CSc1nc(N)c2c(n1)N(C)C=NS2(=O)=O | > 28.2 µM | > 28.2 µM | 
COc1cccc(N2C(=O)C3c4[nH]c5ccccc5c4C4CCCC4C3C2=O)c1 (centres undefined) | > 200 µM | > 200 µM | 
O=C(Nc1ccccc1F)c1c(O)nc2sccn2c1=O | > 200 µM | 51.3 µM | 
CC1(C)[C@@H]2C[C@H]1c1cnc(-c3ccccn3)cc1[C@H]2C(O)[C@@H]1c2cc(-c3ccccn3)ncc2[C@H]2C[C@@H]1C2(C)C (some centres undefined) | > 5.01 µM | 0.295 µM | 
COC(=O)NC1C(C)OC(OC2C/C=C(/C)C3C=CC4C(OC5CC(OC6CC(O)C(OC7CC(O)C(OC)C(C)O7)C(C)O6)C(O)C(C)O5)C(C)CC(C)C4C3(C)/C(O)=C3\C(=O)OC4(CC(C)C(CO)=CC4/C=C\2C)C3=O)CC1(C)[N+](=O)[O-] (centres undefined) | > 209 µM | 4.79 µM | 
CS(=O)(=O)OCCCCOS(C)(=O)=O | > 204 µM | > 204 µM | 
COc1cc2c(cc1OC)-c1c(cc(OC)c(OC)c1OC)C2=O |  |  | inactive
COC1=C(N)C(=O)c2nc(-c3nc(C(=O)O)c(C)c(-c4ccc(OC)c(OC)c4O)c3N)ccc2C1=O | > 4.9 µM | 0.00302 µM and 0.00191 µM | 
N#CC(c1ccc(O)cc1)N1CCN(C(C#N)c2ccc(O)cc2)CC1 (centres undefined) | > 200 µM | > 200 µM | 
c1ccc(C2Nc3ccccc3C3OCCCC23)cc1 (centres undefined) | > 70.8 µM | > 70.8 µM | 

Compound | EC50 | IC50 | outcome
C=C(CCCCOCOCCOC)c1ccccc1 |  |  | inactive
Cc1ccc(NCCCN2CCN(CCCNc3ccc(C)c4sc5ccccc5c(=O)c34)CC2)c2c(=O)c3ccccc3sc12 | > 100 µM | > 100 µM | 
COc1cccc(/C=N/[N-]C(N)=O)c1[O-].[Cu+2].[OH3+] | > 64.6 µM | 10.5 µM | 
c1ccc(C2(c3ccccc3)OCCO2)cc1 | > 200 µM | > 200 µM | 
COC(=O)N1c2c(ccc3c2OCO3)C23C4CN5CCCC(CCC12C(=O)OC)(CC4=O)C53 (centres undefined) | > 7.94 µM | > 7.94 µM | 
CC(=O)Nc1ncc([N+](=O)[O-])s1 | > 200 µM | > 200 µM | 
O=C(/C=C\c1ccc(O)c(O)c1)O[C@@H]1C[C@](O)(C(=O)O)C[C@@H](O)[C@H]1O | > 708 µM | 97.7 µM and 355 µM | 
O=S1(=O)CCC(Br)c2ccccc2C1 (centres undefined) | > 200 µM | > 200 µM | 
C=CCNc1nc2c(N)ncnc2s1 | > 200 µM | > 200 µM | 
NNS(=O)(=O)c1ccc(OCC(=O)O)cc1 | > 200 µM | 182 µM | 
Cc1cc(=O)n(-c2ccccc2C)c(C)n1 | > 1000 µM | > 1000 µM | 
CCN(CC)CCOC(=O)C(c1ccccc1)c1ccccc1 | > 200 µM | > 200 µM | 
CC1CCOC(=O)/C=C/C=C/C(=O)OC2CC3OC4C5OC5(C)C(O)CC4(COC(=O)C1O)C2(C)C31CO1 (centres undefined) | > 2 µM | 0.0468 µM | 
Cc1nc2[nH]c(=S)[nH]c(=O)c2[nH]c1=O | > 200 µM | > 200 µM | 
CC[C@@]1(O)C(=O)OCc2c1cc1n(c2=O)Cc2c-1nc1ccccc1c2Cl | > 10 µM | 0.0331 µM | 
CC(=C/c1ccccc1)/C=C1/SC(=S)N(C=C2C(=O)NC(=O)NC2=O)C1=O | > 200 µM | 60.3 µM | 
O=C1/C(=C/c2ccc(O)c([N+](=O)[O-])c2)CCC/C1=C\c1ccc(O)c([N+](=O)[O-])c1 | > 200 µM | 11.7 µM | 
CO/N=C1\CC(NC(=O)CNC(=O)OC(C)(C)C)c2ccsc21 (centres undefined) | > 200 µM | > 200 µM | 
C=C1C(=O)OC2C3C(C)=CC(=O)C3=C(C)CC[C@@H]12 (some centres undefined) | > 30.9 µM | 2.04 µM | 
C[PH+](C)CC[PH+](C)C.[C-]#[O+].[C-]#[O+].[C-]#[O+].[Fe] | > 200 µM | > 200 µM | 
CN1CCN(c2nc3c(c(=O)n(C)c(=O)n3C)n2C)CC1 | > 759 µM | > 759 µM | 
CC(C)/C(Cl)=N/OC(=O)Nc1ccc(OC(F)(F)F)cc1 | > 200 µM | 10.5 µM | 
Cc1cccc(/C=N/N=C(\N)NO)n1 | > 692 µM | 141 µM | 

Compound | EC50 | IC50 | outcome
Cc1ccc2ccccc2c1NC1=NCCO1 | > 200 µM | 107 µM | 
CC(=O)Nc1cc2cc(NC=C(C#N)C#N)ccc2oc1=O | > 37.2 µM | > 37.2 µM | 
Cc1cc(S(=O)(=O)O)c(NC(=O)c2oc3cc(O)ccc3c(=O)c2C)cc1Cl | > 589 µM | > 589 µM | 
C#CCNC(=O)NCCCC(NC(C)=O)C(=O)NCc1ccccc1 (centres undefined) |  |  | inactive
CCOC(C[C@H](O)[C@H]1COC(=S)S1)OCC | 135 µM | > 200 µM | 
CNc1ccc(/C=C2\C=Cc3ccccc32)cc1Br | > 12 µM | > 12 µM | 
Oc1ccccc1-c1nnc2sc3c(Cl)c4nn5c(-c6ccccc6O)nnc5sc4c(Cl)c3nn12 | > 200 µM | 36.3 µM | 
COC(=O)C12c3ccccc3C(c3ccccc31)c1c(N=O)ccc(NO)c12 | > 19.5 µM | > 19.5 µM | 
c1ccc(CCN2CCc3[nH]c4ccccc4c3C2)cc1 | > 200 µM | 39.8 µM | 
Cc1cc2oc(=O)cc(C)c2c(=O)o1 | > 200 µM | > 200 µM | 
CCCCN1CCC(O)(c2cc(C(=O)O)[nH]c2-c2cc(C)no2)C1=O (centres undefined) | > 200 µM | 70.8 µM | 
O=C1/C(=C/c2ccc(Cl)cc2)CCc2ccccc21 | > 19.5 µM | > 19.5 µM | 
COc1cc2ccc(CC#N)cc2cc1OC |  |  | inactive
CCOC(=O)CSc1nc(N)c2c(-c3ccccc3)c3c(nc2n1)CCCC3 | > 200 µM | > 200 µM | 
N#Cc1c(C#N)c(-c2ccccc2)n(-c2ccccc2)c1N | > 200 µM | 53.7 µM | 
COC1O[C@@H]2CCN3C(=O)[C@@H](OC(=O)c4ccc([N+](=O)[O-])cc4)[C@H]1C23 (some centres undefined) | > 200 µM | > 200 µM | 
Nc1ccc2c3c(ccc([N+](=O)[O-])c13)CC2 | > 200 µM | 102 µM | 
CCOC(=O)c1ccc(N2C(=O)Cc3ccccc3C2=O)cc1 |  |  | inactive
CC[C@H](OCc1ccccc1)/C(C)=C/CC(C)/C=C(/C[C@]1(C)OC(=O)N2CCC[C@H]21)[Si](C)(C)C (some centres undefined) | > 10.7 µM | > 10.7 µM | 
COC1=CCC2=C(CC[C@H]3[C@H]2CCP3(C)=S)C1 (some centres undefined) |  |  | inactive
C1COC2(CNCC3(CNC2)OCCO3)O1 | > 200 µM | 174 µM | 
CCOC(=O)C1C(C(=O)OCC)N2c3ccccc3-c3cccnc3[C@@H]2[C@H]1C(=O)OCC (some centres undefined) | > 100 µM | 95.5 µM | 
CC(C)=CC(Cc1ccccc1)S(=O)(=O)c1nc2ccccc2s1 (centres undefined) | > 200 µM | 10 µM | 

Compound | EC50 | IC50 | outcome
O=C(c1nc2cc([N+](=O)[O-])ccc2[nH]c1=O)C(O)c1ccco1 (centres undefined) | > 200 µM | 61.7 µM | 
CC1CCCc2c(-c3ccc(Cl)cc3)nc(N)c(C#N)c21 (centres undefined) | > 200 µM | 26.3 µM | 
CCOC(=O)C1(O)N=C(c2ccccc2)c2ccccc2-n2cccc21 (centres undefined) | > 200 µM | > 200 µM | 
[Ni].c1c[nH]cn1.c1c[nH]cn1.c1c[nH]cn1.c1c[nH]cn1.c1c[nH]cn1.c1c[nH]cn1 | > 66.1 µM | > 66.1 µM | 
CC1=CC(=O)N(n2c(C)n[nH]c2=O)C1=O | > 200 µM | > 200 µM | 
N#Cc1c2c(cn3c1nc1ccccc13)CCCCC2 | > 151 µM | > 151 µM | 
CCc1cccc(C(C)CC)c1N=C(NC(=O)c1ccccc1C(=O)NC(=Nc1c(CC)cccc1C(C)CC)SC)SC (centres undefined) | > 56.2 µM | > 56.2 µM | 
CC1=NC(C(C)C)C(=O)O1 (centres undefined) | > 891 µM | > 891 µM | 
NC(=O)CNC(=O)C1CC(O)CN1C(=O)OCc1ccccc1 (centres undefined) (HELM PEPTIDE1{[O=C(OCc1ccccc1)[*:2]].[O=C(C1CC(O)CN1[*:1])[*:2]].G.[am]}$$$$V2.0) | > 200 µM | > 200 µM | 
CN1CNc2nc(N)n(C)c(=O)c2C1 | > 200 µM | > 200 µM | 
CCOC(=O)CC1NC(=O)CS1 (centres undefined) | > 138 µM | > 138 µM | 
COc1cc(C(O)(CC#N)c2cc3c(cc2Br)OCO3)cc(OC)c1OC (centres undefined) | > 200 µM | 10 µM | 
CC(C)(CN(Cc1ccccc1)Cc1ccccc1)[N+](=O)[O-] |  |  | inactive
O=c1c2cnccc2cc2n1CCc1c-2[nH]c2ccccc12 | > 77.6 µM | 10.2 µM | 
CC1(C)COC(c2cccc(C3=NC(C)(C)CO3)c2)=N1 | > 200 µM | > 200 µM | 
C=C1CN(S(=O)(=O)c2ccc(C)cc2)CCCN(CCCC)CCCN(S(=O)(=O)c2ccc(C)cc2)C1 | > 200 µM | 1.91 µM | 
Nc1ccc2c(c1)C1(NC(=O)NC1=O)c1cc(N)ccc1-2 | > 200 µM | > 200 µM | 
Cn1ncc(NCCn2cnc3c2c(=O)n(C)c(=O)n3C)c(Cl)c1=O | > 200 µM | > 200 µM | 
Cc1ccc(NC(=O)CC2SC(=Nc3ccc(Cl)cc3)NC2=O)cc1C (centres undefined) | > 51.3 µM | > 51.3 µM | 
[Cl][Bi]([Cl])([c]1ccccc1)([c]1ccccc1)[c]1ccccc1 | > 19.5 µM | 3.39 µM | 
